Data published in the supplement of paper PMC12698765.
Structures can show the parent of a compound that is named as a salt. ± gives the standard deviation of the averaged measurements.

Assays:
[1] = system: 409B2 hiPSC (iCRISPR Cas9, FRMD7 editing); experiment: cell survival relative to solvent control (fold (ratio to mock)); higher = more surviving cells
Protocol: (§1)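 Subset screen of 55 drugs tested at 5 concentrations around the effective screening dose, in 409B2 iCRISPR Cas9 hiPSCs editing FRMD7 with a ssDNA donor. Drugs were applied for 24 h. Viability was read by resazurin and editing outcomes by amplicon sequencing (HDR, NHEJ <2 bp microhomology, MMEJ ≥2 bp microhomology). Values are relative to solvent mock controls; two biological replicates.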

[2] = system: 409B2 hiPSC (iCRISPR Cas9, FRMD7 editing); experiment: HDR (precise edit) frequency relative to solvent control (fold (ratio to mock)); higher = more homology-directed repair outcomes
Protocol: as §1

[3] = system: 409B2 hiPSC (iCRISPR Cas9, FRMD7 editing); experiment: MMEJ-attributed deletion frequency relative to solvent control (fold (ratio to mock)); higher = more MMEJ outcomes
Protocol: as §1

[4] = system: 409B2 hiPSC (iCRISPR Cas9, FRMD7 editing); experiment: NHEJ-attributed indel frequency relative to solvent control (fold (ratio to mock)); higher = more NHEJ outcomes
Protocol: as §1

`CNCC[C@H](Oc1cccc2ccccc12)c1cccs1` [Duloxetine HCl] (in DMSO) gave a cell survival ([1]; 2000 nM) of 0.92, a cell survival ([1]; 5000 nM) of 1.24 and a cell survival ([1]; 10000 nM) of 1.18. It also gave a cell survival ([1]; 20000 nM) of 0.796, a cell survival ([1]; 50000 nM) of 0.0121 and an HDR ([2]; 2000 nM) of 1.02 ± 0.13. The HDR ([2]; 5000 nM) was 1.14 ± 0.024, the HDR ([2]; 10000 nM) was 1.02 ± 0.0038 and the HDR ([2]; 20000 nM) was 0.88 ± 0.06. For the same compound, the HDR ([2]; 50000 nM) was 0.33 ± 0.35, the MMEJ-attributed deletion frequency ([3]; 2000 nM) was 1.09 ± 0.25 and the MMEJ-attributed deletion frequency ([3]; 5000 nM) was 1.14 ± 0.069. For the same compound, the MMEJ-attributed deletion frequency ([3]; 10000 nM) was 1.36 ± 0.053, the MMEJ-attributed deletion frequency ([3]; 20000 nM) was 1.86 ± 0.036 and the MMEJ-attributed deletion frequency ([3]; 50000 nM) was 1.42 ± 0.81. For the same compound, the NHEJ-attributed indel frequency ([4]; 2000 nM) was 0.932 ± 0.027, the NHEJ-attributed indel frequency ([4]; 5000 nM) was 0.986 ± 0.0019 and the NHEJ-attributed indel frequency ([4]; 10000 nM) was 0.998 ± 0.025. For the same compound, the NHEJ-attributed indel frequency ([4]; 20000 nM) was 1.029 ± 0.0059 and the NHEJ-attributed indel frequency ([4]; 50000 nM) was 0.517 ± 0.45.

With `O=C(c1cc(Cc2n[nH]c(=O)c3ccccc23)ccc1F)N1CCN(C(=O)C2CC2)CC1` (in DMSO) the cell survival ([1]; 200 nM) was 0.395, the cell survival ([1]; 500 nM) was 0.388 and the cell survival ([1]; 1000 nM) was 0.217. The cell survival ([1]; 2000 nM) was 0.106, the cell survival ([1]; 5000 nM) was 0.0246 and the HDR ([2]; 200 nM) was 1.28 ± 0.18. The HDR ([2]; 500 nM) was 1.18 ± 0.16, the HDR ([2]; 1000 nM) was 1.341 ± 0.0076 and the HDR ([2]; 2000 nM) was 1.03 ± 0.017. For the same compound, the HDR ([2]; 5000 nM) was 0.432 ± 0.03, the MMEJ-attributed deletion frequency ([3]; 200 nM) was 0.9 ± 0.073 and the MMEJ-attributed deletion frequency ([3]; 500 nM) was 0.64 ± 0.079. It also gave an MMEJ-attributed deletion frequency ([3]; 1000 nM) of 0.705 ± 0.18, an MMEJ-attributed deletion frequency ([3]; 2000 nM) of 0.614 ± 0.013 and an MMEJ-attributed deletion frequency ([3]; 5000 nM) of 0.746 ± 0.11. For the same compound, the NHEJ-attributed indel frequency ([4]; 200 nM) was 0.814 ± 0.042, the NHEJ-attributed indel frequency ([4]; 500 nM) was 0.78 ± 0.042 and the NHEJ-attributed indel frequency ([4]; 1000 nM) was 0.698 ± 0.076. It also gave an NHEJ-attributed indel frequency ([4]; 2000 nM) of 0.6123 ± 0.0021 and an NHEJ-attributed indel frequency ([4]; 5000 nM) of 0.513 ± 0.04.

`Cc1nc(=O)c2cc(CN(C)c3ccc(C(=O)N[C@@H](CCC(=O)O)C(=O)O)s3)ccc2[nH]1` [Raltitrexed] (in DMSO) gave a cell survival ([1]; 200 nM) of 1.09, a cell survival ([1]; 500 nM) of 1.21 and a cell survival ([1]; 1000 nM) of 0.963. The cell survival ([1]; 2000 nM) was 1.05, the cell survival ([1]; 5000 nM) was 1.11 and the HDR ([2]; 200 nM) was 1.138 ± 0.0048. It also gave an HDR ([2]; 500 nM) of 1.13 ± 0.038, an HDR ([2]; 1000 nM) of 1.16 ± 0.1 and an HDR ([2]; 2000 nM) of 1.13 ± 0.042. For the same compound, the HDR ([2]; 5000 nM) was 1.13 ± 0.14, the MMEJ-attributed deletion frequency ([3]; 200 nM) was 1.01 ± 0.14 and the MMEJ-attributed deletion frequency ([3]; 500 nM) was 1 ± 0.078. It also gave an MMEJ-attributed deletion frequency ([3]; 1000 nM) of 1.12 ± 0.035, an MMEJ-attributed deletion frequency ([3]; 2000 nM) of 0.948 ± 0.012 and an MMEJ-attributed deletion frequency ([3]; 5000 nM) of 1.02 ± 0.057. The NHEJ-attributed indel frequency ([4]; 200 nM) was 0.977 ± 0.023, the NHEJ-attributed indel frequency ([4]; 500 nM) was 0.967 ± 0.01 and the NHEJ-attributed indel frequency ([4]; 1000 nM) was 0.984 ± 0.021. For the same compound, the NHEJ-attributed indel frequency ([4]; 2000 nM) was 0.981 ± 0.026 and the NHEJ-attributed indel frequency ([4]; 5000 nM) was 0.957 ± 0.039.

Work on `O=C(O[C@H]1CN2CCC1CC2)N1CCc2ccccc2[C@@H]1c1ccccc1` [Solifenacin succinate] (in DMSO) yielded a cell survival ([1]; 200 nM) of 1.04, a cell survival ([1]; 500 nM) of 1.16 and a cell survival ([1]; 1000 nM) of 0.907. For the same compound, the cell survival ([1]; 2000 nM) was 1.06, the cell survival ([1]; 5000 nM) was 1.1 and the HDR ([2]; 200 nM) was 1.14 ± 0.017. For the same compound, the HDR ([2]; 500 nM) was 1.06 ± 0.051, the HDR ([2]; 1000 nM) was 1.04 ± 0.12 and the HDR ([2]; 2000 nM) was 1.02 ± 0.015. It also gave an HDR ([2]; 5000 nM) of 1.09 ± 0.039, an MMEJ-attributed deletion frequency ([3]; 200 nM) of 0.989 ± 0.091 and an MMEJ-attributed deletion frequency ([3]; 500 nM) of 0.991 ± 0.017. The MMEJ-attributed deletion frequency ([3]; 1000 nM) was 0.924 ± 0.054, the MMEJ-attributed deletion frequency ([3]; 2000 nM) was 0.937 ± 0.033 and the MMEJ-attributed deletion frequency ([3]; 5000 nM) was 1.01 ± 0.12. The NHEJ-attributed indel frequency ([4]; 200 nM) was 0.9657 ± 0.0021, the NHEJ-attributed indel frequency ([4]; 500 nM) was 0.993 ± 0.015 and the NHEJ-attributed indel frequency ([4]; 1000 nM) was 0.999 ± 0.026. The NHEJ-attributed indel frequency ([4]; 2000 nM) was 1.01 ± 0.017 and the NHEJ-attributed indel frequency ([4]; 5000 nM) was 0.989 ± 0.032.

Compound `C[C@]12CC[C@@H]3c4ccc(O)cc4CC[C@H]3[C@@H]1C[C@@H](O)[C@@H]2O` [Estriol] (in DMSO) has a cell survival ([1]; 20 nM) of 0.994, a cell survival ([1]; 50 nM) of 1.11 and a cell survival ([1]; 100 nM) of 0.907. It also gave a cell survival ([1]; 200 nM) of 1.02, a cell survival ([1]; 500 nM) of 0.944 and a cell survival ([1]; 2000 nM) of 0.929. The cell survival ([1]; 5000 nM) was 1.19, the cell survival ([1]; 10000 nM) was 1.05 and the cell survival ([1]; 20000 nM) was 0.994. The cell survival ([1]; 50000 nM) was 1.15, the HDR ([2]; 20 nM) was 1.18 ± 0.038 and the HDR ([2]; 50 nM) was 1.03 ± 0.06. For the same compound, the HDR ([2]; 100 nM) was 1.02 ± 0.079, the HDR ([2]; 200 nM) was 1.04 ± 0.094 and the HDR ([2]; 500 nM) was 1.08 ± 0.14. The HDR ([2]; 2000 nM) was 0.971 ± 0.021, the HDR ([2]; 5000 nM) was 1.12 ± 0.049 and the HDR ([2]; 10000 nM) was 1.07 ± 0.019. The HDR ([2]; 20000 nM) was 1.11 ± 0.019, the HDR ([2]; 50000 nM) was 1.15 ± 0.078 and the MMEJ-attributed deletion frequency ([3]; 20 nM) was 0.961 ± 0.14. For the same compound, the MMEJ-attributed deletion frequency ([3]; 50 nM) was 0.901 ± 0.016, the MMEJ-attributed deletion frequency ([3]; 100 nM) was 0.923 ± 0.1 and the MMEJ-attributed deletion frequency ([3]; 200 nM) was 0.917 ± 0.12. It also gave an MMEJ-attributed deletion frequency ([3]; 500 nM) of 0.932 ± 0.1, an MMEJ-attributed deletion frequency ([3]; 2000 nM) of 0.923 ± 0.2 and an MMEJ-attributed deletion frequency ([3]; 5000 nM) of 0.996 ± 0.019. For the same compound, the MMEJ-attributed deletion frequency ([3]; 10000 nM) was 1 ± 0.038, the MMEJ-attributed deletion frequency ([3]; 20000 nM) was 1.04 ± 0.014 and the MMEJ-attributed deletion frequency ([3]; 50000 nM) was 0.971 ± 0.029. The NHEJ-attributed indel frequency ([4]; 20 nM) was 0.994 ± 0.029, the NHEJ-attributed indel frequency ([4]; 50 nM) was 1.01 ± 0.0089 and the NHEJ-attributed indel frequency ([4]; 100 nM) was 1.01 ± 0.039. For the same compound, the NHEJ-attributed indel frequency ([4]; 200 nM) was 1.01 ± 0.018, the NHEJ-attributed indel frequency ([4]; 500 nM) was 1.02 ± 0.025 and the NHEJ-attributed indel frequency ([4]; 2000 nM) was 1.02 ± 0.015. For the same compound, the NHEJ-attributed indel frequency ([4]; 5000 nM) was 0.988 ± 0.043, the NHEJ-attributed indel frequency ([4]; 10000 nM) was 0.987 ± 0.043 and the NHEJ-attributed indel frequency ([4]; 20000 nM) was 0.9898 ± 0.0067. The NHEJ-attributed indel frequency ([4]; 50000 nM) was 0.986 ± 0.047.
